Measured values: paper PMC6364417, “Kinase inhibitor library screening identifies synergistic drug combinations effective in sensitive and resistant melanoma cells” (Journal of Experimental & Clinical Cancer Research : CR, 2019)

Columns and labels:
Experiment in all cases: Kinase inhibitor library screening, PrestoBlue cell viability, 1 or 10 μM, 72 h
[1] = tested on: IGR37-XP cells (Vemurafenib-resistant)
Method: (§1) After 72 h of treatment, cell viability was assessed using the PrestoBlue Cell Viability Reagent (ThermoFisher Scientific). Measurements were performed with the CLARIOstar Monochromator microplate reader (BMG Labtech).
(§2) Kinase inhibitor library screening. […] Each cell line was treated in its sensitive form (parental), and also as 2 resistant derivatives, which were made resistant to either Vemurafenib (XP) or Dabrafenib (GP). Drugs were added at 2 different concentrations, 1 and 10 μM, for 72 h and cell viability was assessed using the PrestoBlue Cell Viability assay. Results are depicted as % viability compared to untreated cells. Each cell line was analyzed at least in duplicate. […] (XLSX 95 kb)

[2] = tested on: IGR37-GP cells (Dabrafenib-resistant)
Method: as §1, §2

[3] = tested on: 501Mel cells (parental)
Method: as §1, §2

[4] = tested on: 501Mel-GP cells (Dabrafenib-resistant)
Method: as §1, §2

[5] = tested on: IGR37 cells (parental)
Method: as §1, §2

[6] = tested on: A375-GP cells (Dabrafenib-resistant); conditions: for cell viability (kinase inhibitor library screening): in %
Method: as §1, §2

[7] = tested on: A375-XP cells (Vemurafenib-resistant); conditions: for cell viability (kinase inhibitor library screening): in %
Method: as §1, §2

[8] = tested on: A375 cells (parental); conditions: for cell viability (kinase inhibitor library screening): in %
Method: as §1, §2

[9] = tested on: 501Mel-XP cells (Vemurafenib-resistant)
Method: as §1, §2

## C[C@]1(O)C[C@@H](c2nc(-c3ccc4ccc(-c5ccccc5)nc4c3)c3c(N)nccn32)C1 [Linsitinib (OSI-906)]
[1]; Homo sapiens, IGR-37, 72 h, read-out: cell viability, IGR37 XP, 1μΜ
  viability at 1 µM: 66.7%
[1]; Homo sapiens, IGR-37, 72 h, read-out: cell viability, IGR37 XP, 10μΜ
  viability at 10 µM: 6.7%
[2]; Homo sapiens, IGR-37, 72 h, read-out: cell viability, IGR37 GP, 1μΜ
  viability at 1 µM: 81.6%
[2]; Homo sapiens, IGR-37, 72 h, read-out: cell viability, IGR37 GP, 10μΜ
  viability at 10 µM: 25.5%
[3]; Homo sapiens, 72 h, read-out: cell viability, 501Mel Parental, 1μΜ
  viability at 1 µM: 70.7%
[3]; Homo sapiens, 72 h, read-out: cell viability, 501Mel Parental, 10μΜ
  viability at 10 µM: 45.5%
[4]; Homo sapiens, 72 h, read-out: cell viability, 501Mel GP, 1μΜ
  viability at 1 µM: 83.6%
[4]; Homo sapiens, 72 h, read-out: cell viability, 501Mel GP, 10μΜ
  viability at 10 µM: 54.2%
[5]; Homo sapiens, IGR-37, 72 h, read-out: cell viability, IGR37 Parental, 1μΜ
  viability at 1 µM: 107%
[5]; Homo sapiens, IGR-37, 72 h, read-out: cell viability, IGR37 Parental, 10μΜ
  viability at 10 µM: 67.7%
[6]; Homo sapiens, A-375, 72 h, read-out: cell viability, A375 GP, 1μΜ
  viability at 1 µM: 67.1%
[6]; Homo sapiens, A-375, 72 h, read-out: cell viability, A375 GP, 10μΜ
  viability at 10 µM: 34.4%
[7]; Homo sapiens, A-375, 72 h, read-out: cell viability, A375 XP, 1μΜ
  viability at 1 µM: 77.2%
[7]; Homo sapiens, A-375, 72 h, read-out: cell viability, A375 XP, 10μΜ
  viability at 10 µM: 44.6%
[8]; Homo sapiens, A-375, 72 h, read-out: cell viability, A375 Parental, 1μΜ
  viability at 1 µM: 84.1%
[8]; Homo sapiens, A-375, 72 h, read-out: cell viability, A375 Parental, 10μΜ
  viability at 10 µM: 42.3%
[9]; Homo sapiens, 72 h, read-out: cell viability, 501Mel XP, 1μΜ
  viability at 1 µM: 75.2%
[9]; Homo sapiens, 72 h, read-out: cell viability, 501Mel XP, 10μΜ
  viability at 10 µM: 32.6%

## COc1cc2c(Oc3ccc4[nH]c(C)cc4c3F)ncnc2cc1OCCCN1CCCC1 [Cediranib (AZD2171)]
[1]; IGR37 XP, 1μΜ, in %
  cell viability (kinase inhibitor library screening): 97.7
[1]; IGR37 XP, 10μΜ, in %
  cell viability (kinase inhibitor library screening): 1.6
[2]; IGR37 GP, 1μΜ, in %
  cell viability (kinase inhibitor library screening): 99.5
[2]; IGR37 GP, 10μΜ, in %
  cell viability (kinase inhibitor library screening): 4.2
[3]; 501Mel Parental, 10μΜ, in %
  cell viability (kinase inhibitor library screening): 1.2
[4]; 501Mel GP, 1μΜ, in %
  cell viability (kinase inhibitor library screening): 105.5
[4]; 501Mel GP, 10μΜ, in %
  cell viability (kinase inhibitor library screening): 0.9
[5]; IGR37 Parental, 1μΜ, in %
  cell viability (kinase inhibitor library screening): 94.9
[5]; IGR37 Parental, 10μΜ, in %
  cell viability (kinase inhibitor library screening): 1.6
[6]; A375 GP, 1μΜ
  cell viability (kinase inhibitor library screening): 97.5
[6]; A375 GP, 10μΜ
  cell viability (kinase inhibitor library screening): 15.1
[7]; A375 XP, 1μΜ
  cell viability (kinase inhibitor library screening): 104.3
[7]; A375 XP, 10μΜ
  cell viability (kinase inhibitor library screening): 4.2
[8]; A375 Parental, 1μΜ
  cell viability (kinase inhibitor library screening): 105.9
[8]; A375 Parental, 10μΜ
  cell viability (kinase inhibitor library screening): 27.2
[9]; 501Mel XP, 1μΜ, in %
  cell viability (kinase inhibitor library screening): 89.8
[9]; 501Mel XP, 10μΜ, in %
  cell viability (kinase inhibitor library screening): -0.129

## CC(C)(C)Cn1c(N)nc2ccc(-c3[nH]c(C(C)(C)C)nc3-c3ccc(F)cc3)nc21 [LY2228820]
[1]; IGR37 XP, 10μΜ, 72 h
  Cell viability in kinase inhibitor library screening, IGR37 XP, 10μΜ: 38.4%
[1]; IGR37 XP, 1μΜ, 72 h, in %
  Cell viability in kinase inhibitor library screening, IGR37 XP, 1μΜ: 91.6
[2]; IGR37 GP, 10μΜ, 72 h
  Cell viability in kinase inhibitor library screening, IGR37 GP, 10μΜ: 82.8%
[2]; IGR37 GP, 1μΜ, 72 h, in %
  Cell viability in kinase inhibitor library screening, IGR37 GP, 1μΜ: 90.6
[3]; 501Mel Parental, 1μΜ, 72 h, in %
  Cell viability in kinase inhibitor library screening, 501Mel Parental, 1μΜ: 95.6
[3]; 501Mel Parental, 10μΜ, 72 h, in %
  Cell viability in kinase inhibitor library screening, 501Mel Parental, 10μΜ: 91.9
[4]; 501Mel GP, 1μΜ, 72 h, in %
  Cell viability in kinase inhibitor library screening, 501Mel GP, 1μΜ: 108.2
[5]; IGR37 Parental, 10μΜ, 72 h, in %
  Cell viability in kinase inhibitor library screening, IGR37 Parental, 10μΜ: 98.8
[6]; A375 GP, 1μΜ, 72 h
  Cell viability in kinase inhibitor library screening, A375 GP, 1μΜ: 105.3
[6]; A375 GP, 10μΜ, 72 h
  Cell viability in kinase inhibitor library screening, A375 GP, 10μΜ: 79.1
[7]; A375 XP, 1μΜ, 72 h
  Cell viability in kinase inhibitor library screening, A375 XP, 1μΜ: 100.0
[7]; A375 XP, 10μΜ, 72 h
  Cell viability in kinase inhibitor library screening, A375 XP, 10μΜ: 84.7
[8]; A375 Parental, 10μΜ, 72 h
  Cell viability in kinase inhibitor library screening, A375 Parental, 10μΜ: 91.0
[8]; A375 Parental, 1μΜ, 72 h
  Cell viability in kinase inhibitor library screening, A375 Parental, 1μΜ: 105.7
[9]; 501Mel XP, 1μΜ, 72 h, in %
  Cell viability in kinase inhibitor library screening, 501Mel XP, 1μΜ: 97.0
[9]; 501Mel XP, 10μΜ, 72 h, in %
  Cell viability in kinase inhibitor library screening, 501Mel XP, 10μΜ: 82.4

## c1ccc2c(-c3cnn4cc(-c5ccc(N6CCNCC6)cc5)cnc34)ccnc2c1 [LDN193189]
[1]; IGR37 XP, 1μΜ, in %
  cell viability (kinase inhibitor library screening): 103.7
[1]; IGR37 XP, 10μΜ, in %
  cell viability (kinase inhibitor library screening): 3.2
[2]; IGR37 GP, 1μΜ, in %
  cell viability (kinase inhibitor library screening): 94.5
[2]; IGR37 GP, 10μΜ, in %
  cell viability (kinase inhibitor library screening): 4.6
[3]; 501Mel Parental, 1μΜ, in %
  cell viability (kinase inhibitor library screening): 119.0
[3]; 501Mel Parental, 10μΜ, in %
  cell viability (kinase inhibitor library screening): 0.949
[4]; 501Mel GP, 1μΜ, in %
  cell viability (kinase inhibitor library screening): 129.1
[4]; 501Mel GP, 10μΜ, in %
  cell viability (kinase inhibitor library screening): 1.7
[5]; IGR37 Parental, 10μΜ, in %
  cell viability (kinase inhibitor library screening): 0.221
[6]; A375 GP, 1μΜ
  cell viability (kinase inhibitor library screening): 104.8
[6]; A375 GP, 10μΜ
  cell viability (kinase inhibitor library screening): 3.4
[7]; A375 XP, 1μΜ
  cell viability (kinase inhibitor library screening): 98.9
[7]; A375 XP, 10μΜ
  cell viability (kinase inhibitor library screening): 2.6
[8]; A375 Parental, 1μΜ
  cell viability (kinase inhibitor library screening): 104.5
[8]; A375 Parental, 10μΜ
  cell viability (kinase inhibitor library screening): 1.7
[9]; 501Mel XP, 10μΜ, in %
  cell viability (kinase inhibitor library screening): 0.8
